Measured values published in article PMC5355811 (Nature Communications, 2017).
Read-outs that look alike come from different tables or passages of the source.

Key:
[1] = system: PC9-triple mutant (C797S/T790M/del19) xenograft
Experimental: (§4) Tumour growth was monitored twice weekly by bilateral caliper measurement, and tumour volume was calculated as 0.5 × length × width × width (mm^3). […] The mice whose implanted tumour size was ranked in the top 5% and bottom 5% were excluded from randomization to minimize the variation of tumour sizes. The mice were treated once daily by oral gavage for the indicated period. Relative tumour volume was calculated by dividing by the tumour volume on day 0. The body weights of the mice were measured twice weekly. Implanted tumours were resected from the mice on day 15 of drug treatment and were fixed with formalin. The mice were euthanized when the tumour size exceeded 700 mm^3 within several days. The investigators performing tumour measurements were not blinded to treatment groups. The sample size (minimum n=6 per treatment group) was selected to ensure satisfactory inter-animal reproducibility. The Mann–Whitney U test was used for the statistical analysis of the mice experiments.

[2] = system: Ba/F3 cells expressing EGFR-T790M/del19; assay: CellTiter-Glo cell viability assay, Ba/F3 EGFR-T790M/del19; format: cell-based; settings: Mus musculus
Experimental: (§1) Three-day cell viability assays were carried out by plating 2,000, 1,500 and 2,000 cells per well of Ba/F3, PC9 or MGH121, respectively, into black transparent-bottom 96-well plates. On the same day for Ba/F3 cells and the following day for PC9 and MGH121 cells, the cells were treated with each TKI across a 10-dose range from 0.3 nmol l^−1 to 10 μmol l^−1. After 72 h of drug treatment, cell viability was measured using the CellTiter-Glo assay (Promega).

[3] = system: PC9 parent cells (del19); assay: CellTiter-Glo cell viability assay, PC9 parent; format: cell-based; settings: read-out: IC50, PC9 parent
Experimental: as §1

[4] = system: MGH121 parental cells (T790M/del19); assay: cells; format: cell-based; settings: Homo sapiens, MGH121, 72 h, read-out: IC50, MGH121-pt
Experimental: as §1

[5] = system: MGH121-res2 cells (C797S/T790M/del19); assay: cells; format: cell-based; settings: Homo sapiens, MGH121, 72 h, read-out: IC50, MGH121-res2
Experimental: as §1

[6] = system: PC9-T790M (T790M/del19) xenograft; assay: PC9-T790M xenograft; format: in vivo, Balb-c nu/nu mice; settings: osimertinib 50 mg kg^−1, brigatinib 75 mg kg^−1
Experimental: as §4

[7] = system: EGFR phosphorylation in PC9 triple-mutant cells; assay: Western blotting of EGFR signalling, PC9 triple mutant; format: cell-based
Experimental: (§2) Tumour tissues or cells grown under the specified conditions were washed with cold PBS before addition of the SDS lysis buffer (100 mM Tris, 1% SDS, 10% glycerol). Lysates were transferred to microtubes, boiled for 5 min at 100 °C and then vortexed. Protein quantification was performed using the BCA Protein Assay Reagent (Pierce) according to the manufacturer's protocol. Western blot analyses were conducted after separation by SDS-PAGE and transferred to polyvinylidene difluoride membranes.

[8] = system: PC9 T790M cells (T790M/del19); assay: CellTiter-Glo cell viability assay, PC9 T790M; format: cell-based; settings: read-out: IC50, PC9 T790M
Experimental: as §1

[9] = system: Ba/F3 cells of EGFR-T790M/del19; assay: Drug sensitivity screening at 100 nM, Ba/F3 EGFR-T790M/del19; format: cell-based; settings: Mus musculus, BaF3, 72 h, 100 nM inhibitor, 72 h, DMSO = 100; mean of three independent experiments (Fig. 1a data); read-out: Relative cell viability (ratio to DMSO control), del19/T790M
Experimental: (§3) After the incubation, cell viability was measured using CellTiter-Glo assay. The relative cell viability was calculated as a ratio of each value to that of the DMSO control.

[10] = 180 mg per day, cited from earlier work
[11] = system: EGFR-mutated lung cancer; settings: patients with EGFR-mutated lung cancer, phase 1/2 trial; cited from earlier work
[12] = system: MGH121-res2 (C797S/T790M/del19) xenograft; assay: MGH121-res2 xenograft; format: in vivo; settings: brigatinib 75 mg kg^−1 po; cetuximab 1 mg per mouse two times a week
Experimental: (a,b) MGH121-res2 expressing EGFR-C797S/T790M/del19 were subcutaneously implanted into SCID-beige mice. […] Tumour volume (V) was calculated as 0.5 × length × width^2, and the body weights (B.W.) of the mice were measured twice weekly. N=6. Results are expressed as mean±s.d.

[13] = system: Ba/F3 cells of EGFR-del19; assay: Drug sensitivity screening at 100 nM, Ba/F3 EGFR-del19; format: cell-based; settings: Mus musculus, BaF3, 72 h, 100 nM inhibitor, 72 h, DMSO = 100; mean of three independent experiments (Fig. 1a data); read-out: Relative cell viability (ratio to DMSO control), del19
Experimental: as §3

[14] = system: Ba/F3 cells expressing EGFR-del19; assay: CellTiter-Glo cell viability assay, Ba/F3 EGFR-del19; format: cell-based; settings: Mus musculus
Experimental: as §1

[15] = system: phosphorylation of EGFR in Ba/F3 cells expressing EGFR-C797S/T790M/del19; assay: Western blotting of EGFR signalling, Ba/F3 triple-del19; format: cell-based; settings: 6 h
Experimental: as §2

[16] = target: EGFR-C797S/T790M/L858R (Homo sapiens, UniProt P00533, C797S/L858R/T790M); settings: inhibition curves shifted with ATP concentration, triple-mutant and wild-type EGFR
EGFR-C797S/T790M/L858R, sequence (P00533 712-979 T790M/C797S/L858R): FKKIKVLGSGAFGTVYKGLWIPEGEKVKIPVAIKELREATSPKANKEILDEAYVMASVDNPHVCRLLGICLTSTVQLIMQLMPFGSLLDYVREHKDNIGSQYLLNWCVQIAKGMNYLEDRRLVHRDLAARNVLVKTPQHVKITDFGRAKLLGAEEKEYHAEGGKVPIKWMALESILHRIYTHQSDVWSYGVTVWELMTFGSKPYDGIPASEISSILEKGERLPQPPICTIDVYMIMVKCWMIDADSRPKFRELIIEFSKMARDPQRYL
Experimental: The appropriate amount of target proteins calculated on the basis of the ADP-Glo assay manufacturer's protocol was incubated in 96-well half area white plates with serially diluted inhibitor over a 10-dose range from 0.0002, nM to 10 μM for 10 min at room temperature. ATP at concentration of 1, 10, 100 and 1,000 nM was mixed with 100 μg ml^−1 substrate and added to a kinase protein–inhibitor mixture, and then incubated for 60 min at room temperature. After the kinase reaction, an equal volume of ADP-Glo Reagent was added to terminate the kinase reaction, and the remaining ATP was depleted. The Kinase Detection Reagent was added both to convert ADP to ATP and to allow the newly synthesized ATP to be measured using the luciferase/luciferin reaction. The light generated was measured using a luminometer.

[17] = system: Ba/F3 cells of EGFR-C797S/T790M/del19; assay: Drug sensitivity screening at 100 nM, Ba/F3 EGFR-C797S/T790M/del19; format: cell-based; settings: Mus musculus
Experimental: as §3

[18] = system: cell surface EGFR in PC9 triple-mutant cells; assay: Flow cytometry of cell surface EGFR; format: cell-based; settings: 0, 6, 24 and 48 h
[19] = system: PC9 triple-mutant cells (C797S/T790M/del19); assay: CellTiter-Glo cell viability assay, PC9 triple mutant; format: cell-based; settings: read-out: IC50, PC9 triple
Experimental: as §1

[20] = system: A431, A549 and H460 cells; assay: CellTiter-Glo cell viability assay, non-EGFR-mutated cell lines; format: cell-based; settings: A431 (EGFR amplification), A549 and H460 (KRAS mutation); 72 h
[21] = system: Ba/F3 cells expressing EGFR-L858R; assay: CellTiter-Glo cell viability assay, Ba/F3 EGFR-L858R; format: cell-based; settings: read-out: IC50, Ba/F3 L858R
Experimental: as §1

SMILES: COc1cc(N2CCC(N3CCN(C)CC3)CC2)ccc1Nc1ncc(Cl)c(Nc2ccccc2P(C)(C)=O)n1 [Brigatinib, brigatinib]
- toxicity, PC9 triple-mutant xenograft-bearing mice ([1]; body weight, brigatinib 75 mg kg^−1 daily, with or without cetuximab): without explicit toxicity
- tumour growth, PC9 triple-mutant xenograft ([1]; osimertinib 50 mg kg^−1, brigatinib 75 mg kg^−1 once daily oral, cetuximab 1 mg per mouse three times a week, panitumumab 0.5 mg per mouse two times a week): significant inhibition of the growth of PC9-triple mutant cells
- phosphorylation of EGFR and downstream signalling in tumour samples ([1]; western blotting of PC9-triple mutant tumours from mice): actually inhibited
- IC50 ([2]; BaF3, 72 h, read-out: IC50, Ba/F3 T790M/del19): 150 nM
- IC50 ([2]; BaF3, read-out: IC50, Ba/F3 T790M/del19): 120 nM
- IC50 [3]: 133 nM
- IC50 [4]: 155 nM
- IC50 [5]: 592 nM
- tumour growth, T790M/del19-expressing PC9 xenograft [6]: successfully suppressed the growth
- EGFR phosphorylation and downstream signalling, PC9 triple-mutant cells [7]: inhibited EGFR phosphorylation and its downstream signalling
- IC50 [8]: 244 nM
- viability at 0.1 µM [9]: 69.2%
- plasma concentration in a steady state ([10]; ref 48): 1,694.3 nM
- plasma concentration in a steady state ([10]; ref 49): 1,447 nM
- cases that achieved partial response [11]: two of 42 cases
- tumour growth, MGH121-res2 xenograft [12]: growth inhibition effect
- viability at 0.1 µM [13]: 10.3%
- IC50 ([14]; BaF3, 72 h, read-out: IC50, Ba/F3 Del19): 43.7 nM
- IC50 ([14]; BaF3, read-out: IC50, Ba/F3 del19): 39.4 nM
- phosphorylation of EGFR and downstream signalling, Ba/F3 triple-del19 [15]: decreased phosphorylation of EGFR and its downstream signalling pathway in a dose-dependent manner
- mode of EGFR kinase inhibition [16]: competitively affected the ATP-binding site of the EGFR kinase domain
- viability at 0.1 µM ([17]; BaF3, 72 h, 100 nM inhibitor, 72 h, DMSO = 100, mean of three independent experiments (Fig. 1a data)): 59.2%
- inhibition at 0.1 µM ([17]; BaF3, at 100 nM, read-out: growth inhibition against EGFR-triple-del19): ~50%
- cell surface EGFR level [18]: no reduction
- IC50 [19]: 599 nM
- inhibitory activity (IC50) in cell lines without EGFR mutation [20]: less inhibitory activity to the cell lines without EGFR mutation than afatinib and osimertinib
- IC50 ([21]; Mus musculus, BaF3, 72 h): 207 nM
- IC50 [21]: 133 nM
